Results from patent US20240408122A1, “PHARMACEUTICAL COMPOSITION FOR PREVENTION OR TREATMENT OF METABOLIC DISEASE COMPRISING LYSOPHOSPHOLIPID” (SEOUL NATIONAL UNIVERSITY R&DB FOUNDATION, priority 2021, published 2024).

Columns and labels:
C3H10T1/2 adipocytes [1] = experiment: Immunoblot analysis of C3H10T1/2 adipocytes (PKA signaling, mitochondrial enzymes); format: cell-based; conditions: for levels of phosphorylated HSL, CREB and PKA substrates / mitochondrial enzymes, including MCAD, ATP5A, UQCRC2, SDHB, NDUFB8, and COXIV: 1 μM; for levels of phosphorylated HSL, CREB and PKA substrates: 24 or 48 hours, vs vehicle, FIG. 1A; for mitochondrial enzymes, including MCAD, ATP5A, UQCRC2, SDHB, NDUFB8, and COXIV: long-term treatment (48 hours), FIG. 1B
Description: (§1) C3H10T1/2 cells were purchased from the American Type Culture Collection (ATCC), and in vitro adipocyte experiments were performed using these cells, which were cultured in DMEM (Welgene) supplemented with 10% FBS (Gibco) and 1% P/S at 37° C. in a humidified atmosphere of 5% CO2. To prepare fully differentiated C3H10T1/2 adipocytes, confluent C3H10T1/2 cells were exposed to BMP4 (R&D system, 20 ng/ml) for 2 days, and induced in a differentiation medium containing IBMX (isobutylmethylxanthine, Cayman, 0.5 mM), dexamethasone (Cayman, 1 μM), insulin (Sigma, 10 μg/mL), indomethacin (Cayman, 0.125 mM), and triiodothyronine (T3, Cayman, 1 nM) for 3 days, then exposed to a maintenance medium containing insulin (1 μg/mL) and T3 (1 nM) for 3 days. To evaluate in vitro effects of lysoplasmalogen, the fully differentiated C3H10T1/2 cells were treated with vehicle control, LPE P-18:0 (1 μM) or LPC P-18:0 (1 μM), LPC P-16:0. (10 μM) or isoproterenol (10 μM) for an indicated time.
(§2) BAT, iWAT and gWAT of mice fed a HFD and administered vehicle control or LPE P-18:0 intraperitoneally were homogenized using the tacoPrep Bead Beater homogenization system in a PROPREP protein extraction solution (iNtRON Biotechnology) containing SIGMAFAST Protease Inhibitor Cocktail (Sigma) and PhoSTOP phosphatase inhibitor (Roche). C3H10T1/2 adipocytes treated with vehicle control, LPE P-18:0 (1 μM) or LPC P-18:0 (1 μM), LPC P-16:0 (10 µM) or isoproterenol (10 μM) were lysed in RIPA Lysis and Extraction Buffer (Thermo Fisher Scientific) containing SIGMAFAST protease inhibitor cocktail (Sigma) and PhoSTOP phosphatase inhibitor (Roche). The extracted protein concentration was quantified by BCA analysis and measured by spectrophotometry at 562 nm (MultiSkan GO, Thermo Fisher Scientific). Proteins were denatured in an SDS sample buffer at 95° C. for 5 min, separated in SDS-PAGE gel, and transferred to a PVDF membrane (Bio-Rad). The membrane was blocked with BSA in 5% non-fat dry milk or TBST (Tris-buffered saline containing 0.1% Tween 20) and incubated overnight along with the primary antibody at 4° C., then cultured with horseradish peroxidase (HRP)-conjugated secondary antibody for 1 hour at room temperature. The primary antibody used for Western blot analysis are listed in Reagents or Resources. Protein expression was detected by a Fusion Solo chemiluminescence imaging system (Vilber Lourmat) and analyzed with EvolutionCapt software (version 17.03). Immunoblots were quantified with National Institutes of Health ImageJ software (version 1.52a).

C3H10T1/2 adipocytes [2] = experiment: Quantification of intracellular cAMP level (Direct cAMP ELISA); format: cell-based; conditions: 1 μM, 24 hours; FIG. 2A
Description: as §1, with “To evaluate in vitro effects of lysoplasmalogen, the fully differentiated C3H10T1/2 cells were treated with vehicle control, LPE P-18:0 (1 μM) or LPC P-18:0 (1 μM), LPC P-16:0. (10 μM) or isoproterenol (10 μM) for an indicated time.” left out
To measure intracellular CAMP levels in the differentiated C3H10T1/2 adipocytes treated with LPC P-18:0 (1 μM), LPE P-18:0 (1 μM) or isoproterenol (10 μM), The Direct CAMP ELISA Kit (Enzo) was used according to the manufacturer's instructions. […] The absorbance of the plate was measured at 405 nm, and the calculated absorbance was converted into pmol/ml of CAMP using AssayFit Pro (v1.31), and normalized to protein concentration measured with the Pierce BCA Protein Assay Kit (Thermo Fisher Scientific).

C3H10T1/2 adipocytes [3] = experiment: Oxygen consumption rate (Seahorse XF, Cell Mito Stress Test); format: cell-based; conditions: 1 μM; FIGS. 2B and 2C
Description: as §1
Oxygen consumption rates (OCRs) were measured with a Seahorse XF Analyzer (Agilent). The differentiated C3H10T1/2 adipocytes […] treated with LPC P-18:0 (1 μM), LPE P-18:0 or vehicle were washed, and maintained in an assay medium (XF DMEM basal medium, pH 7.4 (Agilent)) supplemented with D-(+)-glucose (25 mM) and L-glutamine (4 mM). The XFp Cell Mito Stress Test Kit (Agilent) was used at concentrations of 2.5 μM oligomycin, 0.5 μM carbonyl cyanide-4-(trifluoromethoxy) phenylhydrazone (FCCP) and 0.5 µM rotenone/antimycin A. Basal and maximal OCRs were calculated by subtracting non-mitochondrial respiration. The ATP production rate was calculated by subtracting the OCR induced by oligomycin A from the basal OCR. Spare respiratory capacity was calculated by subtracting baseline OCR from the maximal OCR. The OCR was normalized to protein concentration. Data were analyzed using Agilent Wave software (version 2.6.0.31).

HFD-fed mice [4] = experiment: Body weight and body composition in diet-induced obesity model; format: in vivo; conditions: 200 μg/kg/day intraperitoneally for 2 weeks, FIG. 5
Description: (§3) For the diet-induced obesity model, 8-week-old mice were fed a HFD (60% fat, Research Diets, cat #D12492) for 8 weeks. Standardized rodent pellet feed (NCD, Purina, cat #38057) was used as the control feed. Energy expenditure (EE) was estimated by an indirect calorimeter (PhenoMaster, TSE Systems, Germany). Body compositions were measured by nuclear magnetic resonance (NMR) scanning EchoMRI-700 (Echo Medical Systems). To investigate effects of treatment with LPE P-18:0, the mice were fed a HFD for 8 weeks and injected intraperitoneally with LPE P-18:0 (Avanti Polar Lipids, 200 μg/kg/day, cat #852471P) or vehicle for 2 weeks.

[5] = test system: adipose tissues of HFD-fed mice; experiment: Immunoblot analysis of BAT, iWAT and gWAT of HFD-fed mice; format: in vivo; conditions: 200 μg/kg/day intraperitoneally for 2 weeks, FIGS. 3A, 3B
Description: as §2, with “Proteins were denatured in an SDS sample buffer at 95° C. for 5 min, separated in SDS-PAGE gel, and transferred to a PVDF membrane (Bio-Rad). The membrane was blocked with BSA in 5% non-fat dry milk or TBST (Tris-buffered saline containing 0.1% Tween 20) and incubated overnight along with the primary antibody at 4° C., then cultured with horseradish peroxidase (HRP)-conjugated secondary antibody for 1 hour at room temperature. The primary antibody used for Western blot analysis are listed in Reagents or Resources.” left out
For the diet-induced obesity model, 8-week-old mice were fed a HFD (60% fat, Research Diets, cat #D12492) for 8 weeks. […] Body compositions were measured by nuclear magnetic resonance (NMR) scanning EchoMRI-700 (Echo Medical Systems). […]

HFD-fed mice [6] = experiment: Indirect calorimetry analysis in HFD-fed mice; format: in vivo; conditions: 200 μg/kg/day intraperitoneally for 2 weeks
Description: as §3

HFD-fed mice [7] = experiment: Intraperitoneal insulin tolerance test (ITT); format: in vivo; conditions: 200 μg/kg/day intraperitoneally for 2 weeks, insulin 0.75 units/kg i.p., FIG. 5E
Description: as §3
For the insulin tolerance test, the mice were fasted for 6 hours before the test, was injected intraperitoneally with insulin (Sigma, 0.75 units/kg body weight, cat #91077C-1G), and blood glucose was measured at a designated time interval.

HFD-fed mice [8] = experiment: Glucose tolerance test in HFD-fed mice; format: in vivo; conditions: 200 μg/kg/day intraperitoneally for 2 weeks, FIG. 4
Description: as §3

SMILES | levels of phosphorylated HSL and CREB (C3H10T1/2 adipocytes [1]; 10 μM, 4 hours, vs vehicle (4 mg/mL fatty acid-free BSA), FIG. 6) | intracellular cAMP levels (C3H10T1/2 adipocytes [2]) | levels of phosphorylated HSL, CREB and PKA substrates (C3H10T1/2 adipocytes [1]) | mitochondrial enzymes, including MCAD, ATP5A, UQCRC2, SDHB, NDUFB8, and COXIV (C3H10T1/2 adipocytes [1]) | ATP production rate (C3H10T1/2 adipocytes [3]) | maximum respiration rate (C3H10T1/2 adipocytes [3]) | spare respiratory capacity (C3H10T1/2 adipocytes [3]) | body fat mass (HFD-fed mice [4]) | body weight (HFD-fed mice [4]) | PKA signaling and mitochondrial activity in the adipose tissues [5] | Food intake (HFD-fed mice [6]) | activity (HFD-fed mice [6]) | VO2 (HFD-fed mice [6]; FIGS. 5C, 5D) | energy expenditure (HFD-fed mice [6]; FIGS. 5C, 5D) | insulin tolerance (HFD-fed mice [7]) | glucose tolerance (HFD-fed mice [8])
CCCCCCCCCCCCCC/C=C\OC[C@@H](O)COP(=O)([O-])OCC[N+](C)(C)C [LPC P-16:0] | significant increase |  |  |  |  |  |  |  |  |  |  |  |  |  |  | 
CCCCCCCCCCCCCCCC/C=C\OC[C@@H](O)COP(=O)([O-])OCC[N+](C)(C)C [LPC P-18:0] |  | increase | significant increase | significant upregulation | increase | increase | increase |  |  |  |  |  |  |  |  | 
CCCCCCCCCCCCCCCC/C=C\OC[C@@H](O)COP(=O)(O)OCCN [LPE P-18:0] |  | increase | significant increase | significant upregulation | increase | increase | increase | decreased | decreased | upregulates | decreased | increased | increased | increased | decreased | improves
